The values below come from ChEMBL document CHEMBL3638956, “Tetrahydro-pyrazolo[1,5-a]pyrido-pyrimidines as antagonists of serotonin 5-HT6 receptors, methods for the production and use thereof” (2013).

This assay addresses 5-hydroxytryptamine receptor 6 (Homo sapiens, UniProt P50406). In words: Competitive Binding Assay: Activity test of serotonin 5-HT6 receptor antagonists of the general formulas 1, 2 in the setting of competitive binding to serotonin 5-HT6 receptors.

5-hydroxytryptamine receptor 6, sequence (P50406 whole entry): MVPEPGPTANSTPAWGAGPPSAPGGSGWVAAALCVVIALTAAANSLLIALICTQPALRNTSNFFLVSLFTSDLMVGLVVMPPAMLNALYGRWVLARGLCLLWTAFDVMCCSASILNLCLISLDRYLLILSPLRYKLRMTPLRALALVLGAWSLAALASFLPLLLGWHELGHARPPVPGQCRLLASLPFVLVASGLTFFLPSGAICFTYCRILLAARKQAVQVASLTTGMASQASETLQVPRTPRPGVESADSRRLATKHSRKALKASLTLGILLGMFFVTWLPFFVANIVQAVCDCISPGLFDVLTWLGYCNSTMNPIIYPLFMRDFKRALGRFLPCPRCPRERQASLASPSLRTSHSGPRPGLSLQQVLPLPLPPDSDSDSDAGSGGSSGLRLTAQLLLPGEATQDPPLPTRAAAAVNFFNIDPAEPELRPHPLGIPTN

The term Ki denotes the equilibrium dissociation constant of an inhibitor or competing ligand from its target. Lower therefore signals tighter binding. Take `Cc1nn2c3c(cnc2c1S(=O)(=O)c1ccccc1)CNCC3`: the affinity, expressed as Ki, was 2.14 nM. Broadly, the IC50 is the concentration that gives 50% inhibition. A lower IC50 goes with greater potency in that assay. Consider `CSc1nn2c3c(cnc2c1S(=O)(=O)c1ccccc1)CN(C)CC3`, for which the IC50 was found to be 76.9 nM and affinity was put at a Ki of 35.7 nM. In the case of `Cc1nn2c3c(cnc2c1S(=O)(=O)c1ccccc1)CN(C)CC3`, the IC50 came to 13 nM. In turn, `CSc1nn2c3c(c(C)nc2c1S(=O)(=O)c1ccccc1)CNCC3` showed an IC50 of 16.6 nM and a Ki of 7.7 nM.
